Data from publication PMC12388506, “Preclinical Evaluation of 2-Aminobenzothiazole Derivatives: In Silico, In Vitro, and Preliminary In Vivo Studies as Diabetic Treatments and Their Complications” (Molecules, 2025).
Entries after “also recorded” stand apart in the source; their conditions may differ.

Tests used:
[1] = Observed chemical stability of the isolated compound; format: physicochemical; conditions: neutral (acid) form
Description: Compound 5d was obtained according to the general procedure described. It consists of reacting one molar equivalent of compound 2 with the corresponding carboxylate (L-phenylalanine sodium salt) under refluxing ethanol for 24 h. Under these conditions, the reaction proceeds by nucleophilic attack of the amino group on the carbonimidothioate group of compound 2, with the elimination of gaseous thiomethanol to obtain the sodium salt of SMe-isothiourea 5d, with a yield of 40%. […] Therefore, it was used only as an intermediate for the synthesis of its corresponding methyl ester (8d). The corresponding SMe-isothiureacarbozxylate methyl ester 8d was obtained in 56% yield using one molar equivalent of the SMe-isothiurea sodium salt, with 1.2 equivalents of iodomethane in DMF at room temperature for 24 h, following the general procedure described in the literature. […]
In a flask, L-phenylalanine (202 mg, 1.23 mmol) and NaOH (48.8 mg, 1.2 mmol) were placed in 10 mL of EtOH. […] It was kept at the same temperature for 24 h, and the reaction was monitored with TLC (Hex-AcOEt 7:3). […] Compound 5d was obtained as an acid in the form of a pale white crystal with a yield of 40.0% (182.5 mg, 0.5 mmol) and an mp = 92−94 °C; TLC Rf = 0.44 (Hex-AcOEt 7:3); HPLC tr = 10.7 min; ATR-FTIR νmax (cm^−1): 3155.8, 3067.3, 2925, 2855.6; HRMS (ESI+) 372.0840 m/z calculated for C18H18N3O2S2; found 372.0928 [M + H]^+.

[2] = test system: STZ-HFD-induced T2D Wistar rats; assay: Subchronic evaluation in STZ-HFD-induced T2D model; format: in vivo, rat; parameters: HbA1c: unit not given here
Description: In vivo experiments were conducted in an acute and a subchronic model, where Wistar rats (180–220 g) were used. The study covered a total period of 10 weeks and was carried out under the Mexican Standard, and the “Guide for the Care and Use of Laboratory Animals” of the National Research Council and Health Institutes was followed.
At first, animals were housed in polypropylene cages under conditions of controlled temperature (20–25 °C), relative humidity (36–60%), and light/dark cycles, with water ad libitum. Before starting the experiment, they were given a one-week acclimatization period to adapt to their new habitat. Once finalized, animals were fed an HFD for 3 weeks to generate insulin resistance.
After this period, the animals fasted for 12 h and then were administered intraperitoneally with a single dose of 35 mg/Kg of STZ dissolved in a buffer of 0.1 M citrate, pH 4.5 (prepared on the same day of administration). Once administered, the hypercaloric diet was maintained, and 10% sucrose solution was placed on demand for 2 days.
One week after administration, postprandial blood glucose levels were measured by venipuncture using a glucometer. Those animals that maintained a glucose level between 200 and 400 mg/dL were included in the study.
(§1) Treatments were administered daily as described above, adjusting the dose according to the weight of the individuals. Fasting glucose levels (6 h fast) were monitored every 7 days until the end of treatments at week 10 (Figure 14). Halfway through the last week of treatment, the OGTT was performed, administering a dose of 1.5 g/Kg of glucose orally and subsequently monitoring capillary blood glucose at 0, 15, 30, 60, 90, and 120 min [62]. In addition, a 24-element blood chemistry was measured in a Celercare V automated dry chemistry analyzer (Tianjin MNCHIP Technologies Co., Ltd., Tianjin, China) at the beginning and end of the model. For this purpose, the blood samples were obtained from the tail of the rat.
(§2) At the end of the study, animals fasted for 12 h and were taken to a humane endpoint, where blood samples were obtained. These were kept at room temperature for 30 min and then centrifuged at 4000 RPM for 15 min at 4 °C. Finally, the serum was used to perform 24-element blood chemistry and quantify Trolox-equivalent TAC [86], TNF-α [87], and IL-6 levels using commercial kits from Merck (Darmstadt, Germany), Sigma-Aldrich (St. Louis, MO, USA), Cat. No. MAK334-1KT, RAB0479-1KT, and RAB0311-1KT, respectively. In addition, insulin was quantified using the Rat Ins1/Insulin ELISA Kit, from Sigma-Aldrich, No. Cat. RAB0904-1KT [89] to determine the HOMA-IR index. All kits were performed according to the manufacturer’s instructions without modifications.

[3] = test system: STZ-HFD-induced T2D Wistar rats; assay: 24-element blood chemistry in STZ-HFD-induced T2D model; format: in vivo, rat; parameters: GGT / TBA / AMY / TG / T-CHOL / GLU: unit not given here; conditions: for ALP / ALT / AST / CK: in U/L (unit assumed); for ALB / GLO / TP: in g/dL (unit assumed); for BUN / CRE / Ca / Mg / P / TBIL / UREA: in mg/dL (unit assumed); for tCO2: in mmol/L (unit assumed); for TP: mean ± SEM, n = 4
Description: as §1, §2

[4] = test system: STZ-HFD-induced T2D Wistar rats; assay: Ex vivo serum total antioxidant capacity (Trolox equivalent); format: in vivo, rat
Description: as §2

IL-6 = assay: Ex vivo serum IL-6 quantification; format: in vivo, rat
Description: as §2

TNF-α = assay: Ex vivo serum TNF-α quantification; format: in vivo, rat
Description: as §2

[5] = after the induction of T2D, before treatment
[6] = Table S11, After 5 weeks of treatment
[7] = serum, end of treatment, mean ± SEM, n = 4

Question: Which chemical stability [1] does the source give for `CS/C(=N/c1nc2ccccc2s1)N[C@@H](Cc1ccccc1)C(=O)O` [5d, (E)-((benzo[d]thiazol-2-ylimino)(methylthio)methyl)-L-phenylalanine] here?
Answer: decomposes easily under ambient conditions; also recorded: decomposes, even at low temperatures

Question: What does the source list for `CCc1ccc(CCOc2ccc(CC3SC(=O)NC3=O)cc2)nc1` (centres unmarked) [PGZ, pioglitazone, reference compound]?
Answer: HOMA-IR ([2]; After 5 weeks of treatment): 2.32 ± 0.407; R-QUICKI ([2]; After 5 weeks of treatment): 0.339 ± 0.008; HbA1c ([2]; After 5 weeks of treatment, mean ± SEM, n = 4): 9.633 ± 1.601; HOMA-IR ([2]; Final (end of 5 weeks treatment), PGZ 30 mg/Kg, 8d 32 mg/Kg, mean ± SEM, n = 4): 2.32 ± 0.41; HOMA-IR ([2]; Initial (beginning of treatment), PGZ 30 mg/Kg, 8d 32 mg/Kg, mean ± SEM, n = 4): 2.59 ± 0.34; HOMA-IR [2, 5]: 2.59 ± 0.337; R-QUICKI [2, 5]: 0.333 ± 0.007; HbA1c ([2]; after the induction of T2D, before treatment, mean ± SEM, n = 4): 8.433 ± 0.088; adipogenic effect at necropsy ([2]; after treatment): clear adipogenic effect; polydipsia (water consumption) ([2]; daily oral treatment): decreasing the polydipsia after the first week of treatment; redistribution of adipose tissue from visceral to subcutaneous fat ([2]; necropsy): marked; A/G ([3]; Final): 1.43 ± 0.05; AMY ([3]; Final): 405.75 ± 25.93; AST/ALT ([3]; Final): 4.61 ± 0.51; BUN/CRE ([3]; Final): 28.00 ± 3.24; GGT ([3]; Final): 1.25 ± 0.19; GLU ([3]; Final): 275.25 ± 84.75; T-CHOL ([3]; Final): 98.00 ± 5.57; TBA ([3]; Final): 72.60 ± 16.24; TG ([3]; Final): 151.00 ± 10.42; ALP ([3]; Final): 274.00 ± 58.19; ALT ([3]; Final): 75.75 ± 6.73; AST ([3]; Final): 343.50 ± 39.59; CK ([3]; Final): > 3000; ALB ([3]; Final): 3.78 ± 0.12; GLO ([3]; Final): 2.65 ± 0.12; BUN ([3]; Final): 14.81 ± 1.23; CRE ([3]; Final): 0.54 ± 0.04; Ca ([3]; Final): 9.18 ± 0.08; Mg ([3]; Final): 2.40 ± 0.05; P ([3]; Final): 8.30 ± 0.47; TBIL ([3]; Final): 0.16 ± 0.02; UREA ([3]; Final): 31.58 ± 2.78; tCO2 ([3]; Final): 18.00 ± 0.41; TP ([3]; Final): 6.43 ± 0.22; A/G ([3]; Initial): 1.45 ± 0.03; AMY ([3]; Initial): 369.75 ± 26.22; AST/ALT ([3]; Initial): 1.99 ± 0.38; BUN/CRE ([3]; Initial): 25.75 ± 2.59; GGT ([3]; Initial): 0.80 ± 0.25; GLU ([3]; Initial): 203.25 ± 19.84; T-CHOL ([3]; Initial): 81.00 ± 1.96; TBA ([3]; Initial): 76.43 ± 13.25; TG ([3]; Initial): 108.13 ± 6.46; ALP ([3]; Initial): 271.25 ± 44.69; ALT ([3]; Initial): 63.5 ± 6.5; AST ([3]; Initial): 119.25 ± 7.96; CK ([3]; Initial): 509 ± 118.04; ALB ([3]; Initial): 3.85 ± 0.06; GLO ([3]; Initial): 2.65 ± 0.10; BUN ([3]; Initial): 14.22 ± 1.51; CRE ([3]; Initial): 0.56 ± 0.03; Ca ([3]; Initial): 9.30 ± 0.20; Mg ([3]; Initial): 2.09 ± 0.03; P ([3]; Initial): 7.55 ± 0.87; TBIL ([3]; Initial): 0.2 ± 0.02; UREA ([3]; Initial): 30.40 ± 3.28; tCO2 ([3]; Initial): 13.75 ± 0.85; TP ([3]; Initial): 6.5 ± 0.15; effect on total antioxidant capacity (TAC) [4]: partial recovery of TAC; TAC Equivalent to Trolox [4, 6]: 97.75 ± 1.29 µM; TAC Equivalent to Trolox [4, 7]: 97.75 ± 1.29 µM; effect on IL-6 and TNF-α levels (IL-6; IL-6 and TNF-α together): significantly reduced IL-6 and TNF-α levels; IL-6 (IL-6; [6]): 234.25 ± 52.05 pg/mL; IL-6 (IL-6; [7]): 234.25 ± 52.05 pg/mL; TNF-α (TNF-α; [6]): 3000.53 ± 519.24 pg/mL; TNF-α (TNF-α; [7]): 3000.53 ± 519.24 pg/mL
